Counter-ions that a name gives are not always drawn.
Key:
[1] = tested on: adult rat ventricular myocytes; assay: Cardiomyocyte contractility assay (IonOptix edge detection, fractional shortening); assay type: cell-based; conditions: 1 Hz pacing; for Activity at 1.0 uM (fractional shortening activation over basal): 1.0 uM compound; for Activity at 10 uM (fractional shortening activation over basal): 10 uM compound
Experimental: Contractility of adult rat ventricular myocytes is determined by edge detection with an IonOptix contractility system. Aliquots of myocytes in Tyrode buffer (137 mM NaCl, 3.7 mM KCl, 0.5 mM MgCl2, 1.5 mM CaCl2), 4 mM HEPES, 11 mM glucose) are placed in a perfusion chamber (Series 20 RC-27NE; Warner Instruments), allowed to adhere to the coverslip, and then perfused with 37° C. Tyrode buffer. Myocytes are filed stimulated at 1 Hz and 10V. Only myocytes with clear striations, quiescent prior to pacing, with a cell length of 120-180 microns, a basal fractional shortening equal to 3-8% of the cell length, and a contraction velocity greater than 100 microns per second are used for contractility experiments. To determine the response to compounds, myocytes are first perfused for 60 seconds with Tyrodes buffer followed by 5 minutes of compound and a 140 second washout with Tyrodes buffer. Data is continuously recorded using IonOptix software. Contractility data is analyzed using Ionwizard software (IonOptix). For each cell, 10-20 contractility transients were averaged and compared under basal (no compound) and compound-treated conditions. Compound activity is measured by effects on fractional shortening (FS), where fractional shortening is the ratio of the peak length of the cell at contraction divided by the basal cell length normalized to 100% for an untreated cell.

bovine cardiac myosin = bovine cardiac myosin (Bos taurus, UniProt Q9BE39); assay: Myosin activation assay (PK/LDH-coupled ATPase, bovine cardiac myofibrils); assay type: biochemical; conditions: AC20 = concentration at which total response is increased by twenty percent
Chain of bovine cardiac myosin (Q9BE39 whole entry): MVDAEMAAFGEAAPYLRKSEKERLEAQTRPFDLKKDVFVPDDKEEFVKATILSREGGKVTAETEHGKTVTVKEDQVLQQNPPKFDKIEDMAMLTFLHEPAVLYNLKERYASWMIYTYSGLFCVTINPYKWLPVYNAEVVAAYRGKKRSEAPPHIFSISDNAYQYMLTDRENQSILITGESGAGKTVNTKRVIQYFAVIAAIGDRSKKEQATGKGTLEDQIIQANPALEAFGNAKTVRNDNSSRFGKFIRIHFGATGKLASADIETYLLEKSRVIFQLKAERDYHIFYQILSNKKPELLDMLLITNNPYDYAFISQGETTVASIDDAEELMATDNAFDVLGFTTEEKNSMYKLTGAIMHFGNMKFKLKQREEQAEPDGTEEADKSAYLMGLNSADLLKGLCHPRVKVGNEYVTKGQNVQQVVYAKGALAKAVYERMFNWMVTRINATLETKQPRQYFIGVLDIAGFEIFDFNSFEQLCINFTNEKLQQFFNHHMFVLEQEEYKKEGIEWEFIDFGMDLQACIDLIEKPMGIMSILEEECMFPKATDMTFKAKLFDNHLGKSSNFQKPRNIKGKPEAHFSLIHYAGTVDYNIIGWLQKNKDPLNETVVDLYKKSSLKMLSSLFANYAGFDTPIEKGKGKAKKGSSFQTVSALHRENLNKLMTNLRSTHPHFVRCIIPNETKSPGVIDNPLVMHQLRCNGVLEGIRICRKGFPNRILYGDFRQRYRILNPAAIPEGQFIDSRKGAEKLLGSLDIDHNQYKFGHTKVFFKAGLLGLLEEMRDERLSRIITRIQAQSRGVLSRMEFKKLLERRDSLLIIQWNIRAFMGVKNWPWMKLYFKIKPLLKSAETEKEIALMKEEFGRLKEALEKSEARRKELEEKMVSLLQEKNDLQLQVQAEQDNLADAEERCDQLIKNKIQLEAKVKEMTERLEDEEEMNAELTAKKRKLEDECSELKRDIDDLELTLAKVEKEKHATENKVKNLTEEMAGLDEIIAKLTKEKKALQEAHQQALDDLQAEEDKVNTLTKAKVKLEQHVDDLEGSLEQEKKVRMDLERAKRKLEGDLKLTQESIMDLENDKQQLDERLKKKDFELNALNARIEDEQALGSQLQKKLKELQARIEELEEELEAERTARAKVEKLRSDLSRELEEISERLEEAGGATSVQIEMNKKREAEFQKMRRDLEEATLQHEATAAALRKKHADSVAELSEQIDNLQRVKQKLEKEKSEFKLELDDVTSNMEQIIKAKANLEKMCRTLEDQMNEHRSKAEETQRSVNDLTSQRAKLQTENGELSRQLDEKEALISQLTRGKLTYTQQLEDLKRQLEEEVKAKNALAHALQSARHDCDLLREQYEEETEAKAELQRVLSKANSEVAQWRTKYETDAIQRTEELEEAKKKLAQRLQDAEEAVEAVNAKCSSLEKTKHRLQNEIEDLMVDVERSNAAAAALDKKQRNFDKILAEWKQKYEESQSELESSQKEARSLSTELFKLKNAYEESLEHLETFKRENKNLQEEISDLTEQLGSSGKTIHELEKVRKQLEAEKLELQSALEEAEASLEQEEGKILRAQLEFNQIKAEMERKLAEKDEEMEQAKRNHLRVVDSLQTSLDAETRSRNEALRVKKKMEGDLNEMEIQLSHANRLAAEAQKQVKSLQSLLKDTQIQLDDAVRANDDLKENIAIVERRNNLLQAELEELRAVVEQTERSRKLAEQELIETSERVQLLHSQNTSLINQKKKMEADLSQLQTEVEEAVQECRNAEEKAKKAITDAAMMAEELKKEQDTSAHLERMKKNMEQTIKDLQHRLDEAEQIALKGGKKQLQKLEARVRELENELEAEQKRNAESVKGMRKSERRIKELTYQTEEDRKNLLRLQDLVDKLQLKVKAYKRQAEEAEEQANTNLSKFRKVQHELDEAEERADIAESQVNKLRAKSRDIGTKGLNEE
Chain of bovine cardiac myosin (P85100 whole entry partner): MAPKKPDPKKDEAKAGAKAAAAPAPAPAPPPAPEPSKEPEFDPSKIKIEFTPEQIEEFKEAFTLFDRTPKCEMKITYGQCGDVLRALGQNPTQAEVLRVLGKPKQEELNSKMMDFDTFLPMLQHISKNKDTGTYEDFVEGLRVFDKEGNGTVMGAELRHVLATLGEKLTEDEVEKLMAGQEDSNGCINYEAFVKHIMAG
Chain of bovine cardiac myosin (Q3SZE5 whole entry partner): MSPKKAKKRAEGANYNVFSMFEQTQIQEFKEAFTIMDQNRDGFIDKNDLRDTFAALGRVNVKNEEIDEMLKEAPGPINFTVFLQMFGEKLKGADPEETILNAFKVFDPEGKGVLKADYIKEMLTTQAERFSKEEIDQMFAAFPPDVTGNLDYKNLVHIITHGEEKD
In short: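 Skinned bovine cardiac myofibrils (1 mg/mL) in PIPES/MgCl2 buffer pH 6.8 at free Ca2+ giving ~50% (pCa ~6) or <5% (pCa 10) activation, with 50 μM ATP and 3.3% DMSO. ATPase rate from NADH absorbance at 340 nm (PK/LDH coupling) over 15 min at ambient temperature. AC20/AC50 from a four-parameter fit of DMSO-normalised rates.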

## O=C(Nc1ccnnc1)N1CCC(C(F)(F)S(=O)(=O)c2cccc(F)c2)CC1 [Compound 5, 4-(Difluoro((3-fluorophenyl)sulfonyl)methyl)-N-(pyridazin-4-yl)piperidine-1-carboxamide]
[1]
  Activity at 1.0 uM (fractional shortening activation over basal): ++ (++ represents fractional shorting activation values from 20% to 50% over basal)
  Activity at 10 uM (fractional shortening activation over basal): +++ (+++ represents fractional shortening activation values greater than 50% over basal)
Bovine cardiac myosin
  Myosin Activation (AC20): ++ (++ represents myosin activation value AC20 from 2 μM-5 μM)

## CC(F)(C1CCN(C(=O)Nc2ccnnc2)CC1)S(=O)(=O)c1cccc(F)c1 (centres unmarked) [Compound 6, 4-(1-Fluoro-1-((3-fluorophenyl)sulfonyl)ethyl)-N-(pyridazin-4-yl)piperidine-1-carboxamide trifluoroacetic acid salt]
[1]
  Activity at 10 uM (fractional shortening activation over basal): ++ (++ represents fractional shorting activation values from 20% to 50% over basal)
Bovine cardiac myosin
  Myosin Activation (AC20): ++ (++ represents myosin activation value AC20 from 2 μM-5 μM)

## CC(C)(C1CCN(C(=O)Nc2ccnnc2)CC1)S(=O)(=O)c1cccc(F)c1 [Compound 7, 4-(2-((3-fluorophenyl)sulfonyl)propan-2-yl)-N-(pyridazin-4-yl)piperidine-1-carboxamide]
[1]
  Activity at 1.0 uM (fractional shortening activation over basal): ++ (++ represents fractional shorting activation values from 20% to 50% over basal)
  Activity at 10 uM (fractional shortening activation over basal): ++ (++ represents fractional shorting activation values from 20% to 50% over basal)
Bovine cardiac myosin
  Myosin Activation (AC20): +++ (+++ represents myosin activation value AC20 < 2 μM)

## Cn1nc(C(F)(F)F)cc1S(=O)(=O)[C@@](C)(F)C1CCN(C(=O)Nc2ccon2)CC1 [Compound 18, (R)-4-(1-Fluoro-1-((1-methyl-3-(trifluoromethyl)-1H-pyrazol-5-yl)sulfonyl)ethyl)-N-(isoxazol-3-yl)piperidine-1-carboxamide]
[1]
  Activity at 1.0 uM (fractional shortening activation over basal): +++ (+++ represents fractional shortening activation values greater than 50% over basal)
Bovine cardiac myosin
  Myosin Activation (AC20): +++ (+++ represents myosin activation value AC20 < 2 μM)

## Cn1cc(S(=O)(=O)[C@@](C)(F)C2CCN(C(=O)Nc3ccon3)CC2)c(C(F)F)n1 [Compound 20, (R)-4-(1-((3-(Difluoromethyl)-1-methyl-1H-pyrazol-4-yl)sulfonyl)-1-fluoroethyl)-N-(isoxazol-3-yl)piperidine-1-carboxamide]
[1]
  Activity at 1.0 uM (fractional shortening activation over basal): + (+ represents fractional shorting activation <20% over basal)
[1]; 3.0 uM compound
  Activity at 3.0 uM (fractional shortening activation over basal): ++ (++ represents fractional shorting activation values from 20% to 50% over basal)
Bovine cardiac myosin
  Myosin Activation (AC20): +++ (+++ represents myosin activation value AC20 < 2 μM)

## Cn1nc(C(F)(F)F)cc1S(=O)(=O)[C@@](C)(F)C1CCN(C(=O)Nc2ccnc(F)c2)CC1 [Compound 296, (R)-4-(1-fluoro-1-((1-methyl-3-(trifluoromethyl)-1H-pyrazol-5-yl)sulfonyl)ethyl)-N-(2-fluoropyridin-4-yl)piperidine-1-carboxamide]
Bovine cardiac myosin
  Myosin Activation (AC20): +++ (+++ represents myosin activation value AC20 < 2 μM)

## Cn1cc(S(=O)(=O)[C@@](C)(F)C2CCN(C(=O)Nc3ccnc(F)c3)CC2)c(C(F)F)n1 [Compound 297, (R)-4-(1-((3-(difluoromethyl)-1-methyl-1H-pyrazol-4-yl)sulfonyl)-1-fluoroethyl)-N-(2-fluoropyridin-4-yl)piperidine-1-carboxamide]
Bovine cardiac myosin
  Myosin Activation (AC20): +++ (+++ represents myosin activation value AC20 < 2 μM)

## Cn1cc(S(=O)(=O)[C@@](C)(F)C2CCN(C(=O)Nc3ccc(C#N)nc3)CC2)c(C(F)F)n1 [Compound 299, (R)-N-(6-cyanopyridin-3-yl)-4-(1-((3-(difluoromethyl)-1-methyl-1H-pyrazol-4-yl)sulfonyl)-1-fluoroethyl)piperidine-1-carboxamide]
Bovine cardiac myosin
  Myosin Activation (AC20): +++ (+++ represents myosin activation value AC20 < 2 μM)

## Cn1cc(S(=O)(=O)[C@@](C)(F)C2CCN(C(=O)Nc3ccc(C(N)=O)nc3)CC2)c(C(F)F)n1 [Compound 300, (R)-5-(4-(1-((3-(difluoromethyl)-1-methyl-1H-pyrazol-4-yl)sulfonyl)-1-fluoroethyl)piperidine-1-carboxamido)picolinamide]
Bovine cardiac myosin
  Myosin Activation (AC20): ++ (++ represents myosin activation value AC20 from 2 μM-5 μM)

## C[C@](F)(C1CCN(C(=O)Nc2cnc3c(c2)CNC3=O)CC1)S(=O)(=O)c1cccc(F)c1 [Compound 301, (R)-4-(1-fluoro-1-((3-fluorophenyl)sulfonyl)ethyl)-N-(7-oxo-6,7-dihydro-5H-pyrrolo[3,4-b]pyridin-3-yl)piperidine-1-carboxamide]
Bovine cardiac myosin
  Myosin Activation (AC20): ++ (++ represents myosin activation value AC20 from 2 μM-5 μM)

## C[C@H](O)c1cc(NC(=O)N2CCC([C@](C)(F)S(=O)(=O)c3cccc(F)c3)CC2)ccn1 [Compound 302, 4-((R)-1-fluoro-1-((3-fluorophenyl)sulfonyl)ethyl)-N-(2-((S)-1-hydroxyethyl)pyridin-4-yl)piperidine-1-carboxamide]
Bovine cardiac myosin
  Myosin Activation (AC20): + (+ represents myosin activation value AC20 > 5 μM)

## C[C@@H](O)c1cc(NC(=O)N2CCC([C@](C)(F)S(=O)(=O)c3cccc(F)c3)CC2)ccn1 [Compound 303, 4-((R)-1-fluoro-1-((3-fluorophenyl)sulfonyl)ethyl)-N-(2-((R)-1-hydroxyethyl)pyridin-4-yl)piperidine-1-carboxamide]
Bovine cardiac myosin
  Myosin Activation (AC20): + (+ represents myosin activation value AC20 > 5 μM)

## C[C@@H](O)c1cc(NC(=O)N2CCC([C@@](C)(F)S(=O)(=O)c3cn(C)nc3C(F)F)CC2)ccn1 [Compound 304, 4-((S)-1-((3-(difluoromethyl)-1-methyl-1H-pyrazol-4-yl)sulfonyl)-1-fluoroethyl)-N-(2-((R)-1-hydroxyethyl)pyridin-4-yl)piperidine-1-carboxamide]
Bovine cardiac myosin
  Myosin Activation (AC20): + (+ represents myosin activation value AC20 > 5 μM)

## [2H]C([2H])([2H])n1cc(S(=O)(=O)[C@](F)(C2CCN(C(=O)Nc3ccon3)CC2)C([2H])([2H])[2H])c(C(F)F)n1 [Compound 305, (S)-4-(1-((3-(difluoromethyl)-1-(methyl-d3)-1H-pyrazol-4-yl)sulfonyl)-1-fluoroethyl-2,2,2-d3)-N-(isoxazol-3-yl)piperidine-1-carboxamide]
Bovine cardiac myosin
  Myosin Activation (AC20): + (+ represents myosin activation value AC20 > 5 μM)

## [2H]C([2H])([2H])n1cc(S(=O)(=O)[C@@](F)(C2CCN(C(=O)Nc3ccon3)CC2)C([2H])([2H])[2H])c(C(F)F)n1 [Compound 306, (R)-4-(1-((3-(difluoromethyl)-1-(methyl-d3)-1H-pyrazol-4-yl)sulfonyl)-1-fluoroethyl-2,2,2-d3)-N-(isoxazol-3-yl)piperidine-1-carboxamide]
Bovine cardiac myosin
  Myosin Activation (AC20): +++ (+++ represents myosin activation value AC20 < 2 μM)

## COc1ccc(S(=O)(=O)[C@](C)(F)C2CCN(C(=O)Nc3ccon3)CC2)cn1 [Compound 307, (S)-4-(1-fluoro-1-((6-methoxypyridin-3-yl)sulfonyl)ethyl)-N-(isoxazol-3-yl)piperidine-1-carboxamide]
Bovine cardiac myosin
  Myosin Activation (AC20): + (+ represents myosin activation value AC20 > 5 μM)

## COc1ccc(S(=O)(=O)[C@@](C)(F)C2CCN(C(=O)Nc3ccon3)CC2)cn1 [Compound 308, (R)-4-(1-fluoro-1-((6-methoxypyridin-3-yl)sulfonyl)ethyl)-N-(isoxazol-3-yl)piperidine-1-carboxamide]
Bovine cardiac myosin
  Myosin Activation (AC20): ++ (++ represents myosin activation value AC20 from 2 μM-5 μM)

## C[C@@](F)(C1CCN(C(=O)Nc2ccon2)CC1)S(=O)(=O)c1ccc(C(F)(F)F)nc1 [Compound 309, (S)-4-(1-fluoro-1-((6-(trifluoromethyl)pyridin-3-yl)sulfonyl)ethyl)-N-(isoxazol-3-yl)piperidine-1-carboxamide]
Bovine cardiac myosin
  Myosin Activation (AC20): + (+ represents myosin activation value AC20 > 5 μM)

## C[C@](F)(C1CCN(C(=O)Nc2ccon2)CC1)S(=O)(=O)c1ccc(C(F)(F)F)nc1 [Compound 310, (R)-4-(1-fluoro-1-((6-(trifluoromethyl)pyridin-3-yl)sulfonyl)ethyl)-N-(isoxazol-3-yl)piperidine-1-carboxamide]
Bovine cardiac myosin
  Myosin Activation (AC20): ++ (++ represents myosin activation value AC20 from 2 μM-5 μM)

## C[C@@](F)(C1CCN(C(=O)Nc2ccon2)CC1)S(=O)(=O)c1ccc(OC(F)F)nc1 [Compound 311, (S)-4-(1-((6-(difluoromethoxy)pyridin-3-yl)sulfonyl)-1-fluoroethyl)-N-(isoxazol-3-yl)piperidine-1-carboxamide]
Bovine cardiac myosin
  Myosin Activation (AC20): + (+ represents myosin activation value AC20 > 5 μM)

## C[C@](F)(C1CCN(C(=O)Nc2ccon2)CC1)S(=O)(=O)c1ccc(OC(F)F)nc1 [Compound 312, (R)-4-(1-((6-(difluoromethoxy)pyridin-3-yl)sulfonyl)-1-fluoroethyl)-N-(isoxazol-3-yl)piperidine-1-carboxamide]
Bovine cardiac myosin
  Myosin Activation (AC20): +++ (+++ represents myosin activation value AC20 < 2 μM)

— patent US11123337B2, “4-methylsulfonyl-substituted piperidine urea compounds” (MYOKARDIA, INC., priority 2015, dated 2021)
